The results in this text go back to PMC3876047, “Self/Co-Assembling Peptide, EAR8-II, as a Potential Carrier for a Hydrophobic Anticancer Drug Pirarubicin (THP)—Characterization and in-Vitro Delivery” (International Journal of Molecular Sciences, 2013).

The subject of data set [1] is HeLa cells. Put plainly: Cellular toxicity, CCK-8 assay, HeLa. The format is cell-based, Human. The settings on record: 24 h. The procedure: (§1) All cell lines, purchased from Cedarlane (Burlington, ON, Canada), were used in the current study and cultured in their respective culture medium as follows: Human Cervical Adenocarcinoma: HeLa (CCL-2) in Eagle's Minimum Essential Medium (EMEM) (ATCC30-2003), Human lung cancer: A549 (CCL-185) in F-12 medium (ATCC30-2004). All medium solutions were prepared with 10% fetal bovine serum (FBS-[…]). Two human cancer cell lines, with 10^4 cells per well concentrations, were seeded in 96-well plates, followed by treatment with different peptide-drug complex ratios for 24 h. Cellular-toxicity experiments were performed with sensitive colorimetric assay called Cell counting kit-8 (CCK-8) (Dojindo Molecular Technologies, Inc. Burlington, ON, Canada). CCK-8 contains highly water-soluble tetrazolium salt (WST-8), which is reduced by dehydrogenase activities in cells to give the yellow color of the formazan dye, which is soluble in culture media. The amount of formazan dye is measured by absorption (O.D.) at 450 nm, which is directly proportional to the number of living cells.
Background: Formazan colour is commonly taken as a measure of viable cells.

In data set [2] the test system is A549 cells. As to the kind of experiment: Cellular toxicity, CCK-8 assay, A549. The format is cell-based, Human. The settings on record: 24 h. The procedure: as §1
The nature of data set [3]: Solubilisation of THP in water and EAR8-II solution (appearance). Format: physicochemical. The following applies: visual appearance. The procedure: To determine a suitable concentration of required EAR8-II for THP encapsulation, different concentrations of EAR8-II, in a range of 0.05–1.0 mg/mL, were prepared and combined with THP at 0.1 mg/mL concentration in aqueous solution. Solubility of THP in water is very low, whereas it can be dissolved and stabilized in an EAR8-II solution at a minimum concentration of 0.2 mg/mL. […] However, at higher EAR8-II concentrations (0.2–0.6 mg/mL), THP molecules were fully dissolved, and consequently, a clear-transparent solution of the peptide-drug complexes formed. At much higher peptide concentrations (above 0.6 mg/mL), THP molecules were still fully soluble, but the excess amount of EAR8-II produced a cloudier solution, with clearly a higher particle size distribution. Note that amphiphilic features of EAR8-II, including the ionic and hydrophobic residues, stimulated binding with hydrophobic molecules of THP through protonation of NH2 to NH3^+ in THP molecules and hydrophobic interactions between alanine residues and aromatic rings in the THP structure. […] Both ionic and hydrophobic interactions are the possible main interactions of EAR8-II and THP, i.e., the protonation of THP in an acidic EAR8-II solution and hydrophobic interaction between THP and hydrophobic side chains of EAR8-II are the dominant forces in complexation of EAR8-II-THP. […]

A short description of data set [4]: Tapping mode atomic force microscopy of nanostructure. The format is physicochemical. The settings on record: tapping mode AFM, EAR8-II 0.5 mg/mL. The procedure:
Figure 2. Nanostructure of (A) EAR8-II and (C) EAR8-II-THP complex by tapping mode atomic force microscopy; Intensity-based particle size distribution of (B) EAR8-II and (D) EAR8-II-THP complex in aqueous solution by dynamic light scattering. EAR8-II concentration is 0.5 mg/mL, and THP concentration is 0.1 mg/mL.

Data set [5] is described as follows: Steady-state THP fluorescence, encapsulation of THP by EAR8-II. The format is physicochemical. The settings on record: [THP] = 0.1 mg/mL, fluorescence excitation 480 nm / emission 590 nm, plateau of intensity. The procedure: The amount of protonated THP in EAR8-II is also determined by measuring the fluorescence intensity of the excitation and emission by THP at different EAR8-II concentrations. Protonated THP absorbs light at 480 nm, and emits light at 590–600 nm. Fluorescence intensity for both the excitation and emission spectra is proportional to the concentration of protonated THP stabilized in the peptide solution. Although the initial concentration of THP was constant in each complex, the amount of protonated THP varied due to the dependency of the THP encapsulation efficiency on peptide concentration.
The THP fluorescence emission spectra were acquired on a photon technology international spectrafluorometer (Type QM4-SE, London, ON, Canada) with a continuous xenon lamp as the light source. The emission spectra were collected in the wavelength range of 500–800 nm, while samples were excited at 480 nm. The maximum emission peak of THP is at a wavelength of 590–600 nm. […] The fluorescence intensity at 590 and 480 nm for emission and excitation were obtained by taking the average of twenty points of fluorescence intensity, respectively. Each fluorescence spectrum was divided by lamp intensity to account for eventual lamp fluctuations. The normalized fluorescence intensity for both emission and excitation spectra at 590 and 480 nm was plotted for various peptide-to-drug ratios.

Data set [6] is described as follows: Dynamic light scattering, particle size of peptide and peptide-drug complexes. The settings on record: DLS, intensity-based, aqueous solution, EAR8-II 0.5 mg/mL, 25 °C, no drug. The format is physicochemical. The procedure:
EAR8-II peptide solutions in the concentration range of 0.05–2 mg/mL (0.0547–2.188 mM) were prepared by dissolving peptide lyophilized powder in Milli-Q (18.2 MΩ) water (EMD Millipore, Billerica, MA, USA) followed by bath sonicating for 10 min. Freshly prepared peptide solutions were added to THP to reach fixed [THP] concentrations at 0.1 mg/mL (0.159 mM), followed by mechanical stirring at 900 rpm for 24 h.
The particle size distribution and zeta potential of peptide-drug complexes at different peptide-to-drug ratios were measured by a Zetasizer Nano ZS (Malvern Instruments, Worcestershire, UK). Appropriate settings, viscosity, refractive index, and dispersant solvent were set for each measurement at 25 °C. A small 50 μL volume of the sample was transferred from the vial to a disposable solvent resistant micro cuvette (ZEN0040, Malvern, Worcestershire, UK). The scattered light intensities of the samples were collected at an angle of 173°. This was known as backscatter detection, i.e., the relationship between the size of a particle and its scattered light intensity obtained with the multimodal Contin algorithm, which was provided in the Dispersion Technology Software 5.1 package (Malvern Instruments, Worcestershire, UK).

Turning to `COc1cccc2c1C(=O)c1c(O)c3c(c(O)c1C2=O)C[C@@](O)(C(=O)CO)C[C@@H]3O[C@H]1C[C@H](N)[C@H](O[C@@H]2CCCCO2)[C@H](C)O1` [THP, 4-O-tetrahydropyranyladriamycin], the cellular viability in data set [1] (THP at 38 μM in water, no peptide) came to 29.58 ± 3.69%; in data set [2] (A549, THP at 38 μM in water, no peptide), 64.9 ± 6.4%. For the same molecule, the “cellular toxicity in absence of peptide” value in data set [1] (THP control without peptide) was “non-significant cellular toxicity”; in data set [2] (A549, THP control without peptide) it was “non-significant cellular toxicity”. The “solubility of THP in water” value in data set [3] (water, no peptide, THP 0.1 mg/mL, stirring 24 h) is “very low”.

With “Ac-AEAEARAR-NH2 [EAR8-II, Ac-AEAEARAR-NH2]”, in data set [4], the “average height of self-assembled fibres” value is reported as 15 nm and the “average width of self-assembled fibres” value worked out at 10 nm. The “minimum concentration of peptide required to fully encapsulate THP” value in data set [5] is ~ 0.5 mg/mL. In addition, in data set [6], the “hydrodynamic diameter of aggregates” value was ~ 500 nm. The “minimum EAR8-II concentration at which THP is dissolved and stabilized” value in data set [3] (aqueous solution, [THP] = 0.1 mg/mL, stirring at 900 rpm 24 h) was found to be 0.2 mg/mL.
